From patent publication US8703776B2 (Cymabay Therapeutics, Inc., priority 2011, dated 2014) come the findings set out here.

Test [1] deals with T1, human GPR131 (Homo sapiens, UniProt Q8TDU6).
T1 construct: expressed in transfected cells
T1 sequence (Q8TDU6 1-330): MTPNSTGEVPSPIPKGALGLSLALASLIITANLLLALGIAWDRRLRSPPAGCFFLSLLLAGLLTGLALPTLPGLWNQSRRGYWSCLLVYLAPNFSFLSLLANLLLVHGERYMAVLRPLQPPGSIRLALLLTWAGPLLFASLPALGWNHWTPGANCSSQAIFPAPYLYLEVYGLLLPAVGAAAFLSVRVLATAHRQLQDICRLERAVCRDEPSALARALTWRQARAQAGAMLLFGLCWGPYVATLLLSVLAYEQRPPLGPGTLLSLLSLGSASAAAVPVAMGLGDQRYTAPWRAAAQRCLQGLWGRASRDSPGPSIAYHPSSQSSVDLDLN
As to the kind of experiment: Stimulation of cAMP in stable cell line expressing human GPR131 (FRET cAMP kit). The format is cell-based. Conditions: 0.5 h; 1.1 μM compound, relative to maximal stimulatory activity of lithocholic acid at 3.3 μM; 30 minutes at 37° C.; read-out: Percent Activity @ 1.1 μM (of 3.3 uM LCA) (%). In outline: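 Stable human GPR131 cells in DMEM/F12 with 1 mM IBMX treated with compound for 30 min at 37° C. Intracellular cAMP measured by competitive FRET immunoassay (665/620 nm ratio). Values given as % activity at 1.1 μM compound relative to maximal lithocholic acid stimulation at 3.3 μM.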

Test [2] in a line: Oral glucose tolerance test in C57BL/6N mice. Conditions: 100 mg/kg oral, 3 g/kg glucose, percent reduction in glucose excursion (AUC 0-120 min) vs. control animals. The format is in vivo. On the procedure: Male mice (8-10 week old C57BL/6N, Harlan Laboratories, Inc.) were maintained on 18% Protein Rodent diet (Teklad Global Diets, Harlan Laboratories, Inc). Overnight fasted mice were randomized into groups (n=8-10) to receive the test compounds at a dose of 100 mg/kg or the vehicle (1% CMC, 2% TWEEN 80). Compounds were delivered orally via gavage. Blood glucose levels were measured by glucometer before administration of compounds and at 30 minutes post compound. The mice were then dosed orally with 3 g/kg glucose. Blood glucose measurements were taken 20, 40, 60, 90 and 120 minutes after glucose administration. Glucose levels were plotted against time and the incremental area under the curve (AUC) of the glucose excursion was determined from T=0 to T=120 min.
(§1) Oral glucose tolerance is expressed as a percent reduction in glucose excursion of animals receiving test compound vs. control animals. Incretin activity (i.e. incretin secretion) is expressed as an x-fold increase in GLP-1 production in animals receiving test compound vs. control animals.

The test system of test [3] is Glucagon-like peptide-1 (GLP-1). As to the kind of experiment: Total GLP-1 secretion at end of oral glucose tolerance test. It is filed as in vivo. The conditions noted are these: C57/6N mice, 100 mg/kg oral; total GLP-1 at end of OGTT vs. control animals. On the procedure: The effect of test compounds on the secretion of Glucagon-like peptide-1 (GLP-1) in C57/6N mice was determined at the end of the oral glucose tolerance test. Animals were anesthetized with pentobarbital and blood collected by heart puncture in potassium EDTA-coated microtainer tubes containing 10 μl/ml DPP-IV inhibitor and 500 KIU/ml Aprotinin. Total GLP-1 was measured using Mouse/Rat Total Glucagon-like peptide-1 assay kit (Meso Scale Discovery) and MSD SECTOR2400 Imager according to the manufacturer's instructions.
as §1

The subject of test [4] is Glucagon-like peptide-2 (GLP-2). The experiment in a line: Total GLP-2 secretion at end of OGTT in DIO mice. It is filed as in vivo. Conditions: C57BL/6J DIO mice, 100 mg/kg oral; total GLP-2, 2 hours post glucose dosing. The method, then: (§2) 18 week old C57BL/6J diet induced obese (DIO) male mice were maintained on a 60 kcal % fat diet. Mice fasted for 9 hours were randomized into groups (n=9-10) to receive vehicle (1% CMC, 2% TWEEN 80) or test compound at a dose of 100 mg/kg. Compounds were delivered orally via gavage, and 30 minutes later mice were dosed orally with 2 g/kg glucose.
(§3) The effect of GPR131 agonists on the secretion of total Glucagon-like peptide-2 (GLP-2) and total Peptide YY (PYY) was determined at the end of the oral glucose tolerance test (2 hours post glucose dosing). Animals were anesthetized with pentobarbital and blood collected by heart puncture in potassium EDTA-coated microtainer tubes containing 10 μl/ml DPP-IV inhibitor and 500 KIU/ml Aprotinin. Total GLP-2 was measured using Total Glucagon-like peptide-2 assay kit and Total PYY was measured using Total Peptide YY assay kit.

Test [5] deals with Peptide YY (PYY). As to the kind of experiment: Total PYY secretion at end of OGTT in DIO mice. The format is in vivo. Conditions: C57BL/6J DIO mice, 100 mg/kg oral, 2 hours post glucose dosing. The method, then: as §2, §3

For the compound `Cc1nn(C)cc1CN(C)C(=O)c1cnc(SCc2c(F)ccc(F)c2F)n1-c1ccc(F)cc1` [Compound 505, N-((1,3-Dimethyl-1H-pyrazol-4-yl)methyl)-1-(4-fluorophenyl)-N-methyl-2-((2,3,6-trifluorobenzyl)thio)-1H-imidazole-5-carboxamide], in test [1], the activation at 1.1 µM was found to be 99%. The “Glucose Reduction (%)” value in test [2] was determined as 27.4%. The “Increase in GLP-1 (Fold)” value in test [3] turned out to be 1.9 Fold.

On to `Cc1cc(CN(C)C(=O)c2cnc(SCc3c(F)ccc(F)c3F)n2-c2ccc(F)cc2)ccn1` [Compound 577, 1-(4-Fluorophenyl)-N-methyl-N-((2-methylpyridin-4-yl)methyl)-2-((2,3,6-trifluorobenzyl)thio)-1H-imidazole-5-carboxamide], for which the activation at 1.1 µM in test [1] is 100%. The “Glucose Reduction (%)” value in test [2] worked out at 24.4%. In addition, the “Increase in GLP-1 (Fold)” value in test [3] is reported as 4.1 Fold. Also, the “Increase in GLP-2 (Fold)” value in test [4] is given as 2.5 Fold. Moreover, the “Increase in PYY (Fold)” value in test [5] is listed as 2.2 Fold.
